Assay results reported in article PMC5423977, “Safety, pharmacokinetics, and pharmacodynamics of BMS-986142, a novel reversible BTK inhibitor, in healthy participants” (European Journal of Clinical Pharmacology, 2017).
Where two headings read alike, the source gives them in different places.

Legend:
[1] = Stability of methotrexate and 7-hydroxymethotrexate in human sodium heparin plasma and processed samples (bioanalytical validation); assay type: physicochemical
Description: Method validation was carried out according to the Bristol-Myers Squibb Standard Operating Procedures (SOPs) for chromatographic method validation which conforms to the U.S. FDA’s Good Laboratory Practice (GLP) regulations (21 CFR part 58). The validation experiments included but were not limited to the determination of the lower limit of quantification (LLOQ), specificity, accuracy and precision, recovery, and analyte stability under the expected conditions of sample transfer, sample storage, and sample preparation. The LLOQ of the assay was determined to be 1 ng/mL using six different lots of plasma. No interference from the endogenous components and the internal standard was observed.
The accuracy and precision data for BMS-986142, based on the maximum value from all six QC levels, obtained using one-way ANOVA in Watson are listed in Table 1. The recovery of the analyte from human plasma during extraction was determined at 3 ng/mL and 800 ng/mL for BMS-986142, at 3 ng/mL, 30 ng/mL and 750 ng/mL for methotrexate and 7-hydroxymethotrexate, by comparing the response ratios in human plasma samples spiked with the analyte prior to extraction with those spiked post-extraction. The recovery for BMS-986142 is 89-90%. The recoveries for methotrexate and 7-hydroxymethotrexate are 88-94% and 83-88%, respectively. The room temperature, freeze-thaw, and frozen storage stability of BMS-986142 were evaluated in triplicate or quadruplicate using Low QC, High QC, and Dilution QC. The reinjection integrity was assessed by re-injecting an entire run. The deviations of the mean predicted concentrations of the test samples from the nominal concentrations were used as an indicator of the stability of the analyte.

[2] = system: animal models of arthritis; set-up: method as in PMID 21752263, PMID 21521773; conditions: cited from earlier work
[3] = system: rat adjuvant-induced arthritis model; set-up: method as in PMID 22228807; conditions: alone or in combination with MTX; cited from earlier work
[4] = Effect of BMS-986142 on single-dose plasma PK of MTX (DDI); assay type: in vivo, human; conditions: for AUC(0-inf): read-out: AUC(inf), geometric mean (adjusted); for Cmax: read-out: Cmax, geometric mean (adjusted)
Description: Blood samples for the measurement of BMS-986142 were collected up to 168 h after dosing of BMS-986142 on day 1 for participants in SAD. In MAD, blood samples were collected up to 24 h on day 1 and up to 120 h on day 14 (the last day of treatment). Blood samples for the measurement of MTX were collected up to 48 h after dosing of MTX on days 1 and 8.
Plasma samples were analyzed for BMS-986142 levels with a validated method using liquid chromatography tandem mass spectrometry (LC-MS/MS) detection. The analyte was extracted from 50 μL of plasma using a liquid–liquid extraction method. Methyl tert-butyl ether was used as the extraction solvent. The lower limit of quantification (LLOQ) was 1.00 ng/mL in plasma. Plasma samples were analyzed for methotrexate levels using LC-MS/MS detection. Analytes were isolated from 50 μL plasma through solid phase extraction using Waters Oasis MAX, 10-mg, 96-well SPE plates. The final extract was analyzed using LC-MS/MS detection. LLOQ was 1.00 ng/mL in plasma. Detailed methodology quantitating the concentration level of BMS-986142 and MTX is provided in Online Resource 10.
Individual subject pharmacokinetic parameters for BMS-986142 and MTX were derived by a non-compartmental method using validated PK software (WinNonLin version 6.3; Pharsight Corporation, Mountain View, CA, USA). The following PK parameters for BMS-986142 and MTX were derived from plasma concentration versus time data: maximum observed plasma concentration (Cmax); minimum observed plasma concentration (Cmin); time to maximum observed plasma concentration (Tmax); area under the plasma concentration-time curve from time zero to the time of the last quantifiable concentration (AUC(0-T)), from time zero extrapolated to infinite time (AUC(inf)), and in one dosing interval (AUC(TAU)); terminal plasma half-life (T1/2); and AUC accumulation index (AI_AUC). AI_AUC was calculated to divide AUC(TAU) on day 14 by AUC(TAU) on day 1.
Statistical analyses were conducted to assess the effect of coadministration of BMS-986142 on the PK of MTX. For all treatment comparisons, a linear mixed-effect model was fitted to the log-transformed PK parameters Cmax, AUC(0-T), and AUC(inf). Point estimates and 90% CIs for differences on the log-scale were exponentiated to obtain estimates for geometric mean ratios (GMRs) and respective 90% CIs on the original scale. Sample size determination is based on consideration of the precision of the estimate of the GMRs of AUCs of MTX with and without BMS-986142. With 9 evaluable subjects, there will be an 80% probability that the 90% CI of AUC(INF) GMR will be within 89.9 to 111.2% of the point estimate. These precision estimates are based on an assumption that Cmax and AUC(INF) of MTX are log-normally distributed with intrasubject CV of 14.67 and 10.38%, respectively, as calculated from Namour et al..

[5] = Safety (adverse events), Study 2 MTX-DDI in healthy male participants
Description: This portion of the study was designed to assess the effect of BMS-986142 on the PK of MTX since MTX is used as a background therapy in RA patients and all patients will receive MTX when the phase 2 study of BMS-986142 is conducted. Eligible participants were confined to the clinical facility for the duration of treatment (15 days). Healthy participants were administered a single oral dose of 7.5 mg MTX on day 1. On day 2, participants received leucovorin (a single oral dose of 15 mg) as a preventive measure for MTX toxicity. After a washout period (days 2–5), BMS-986142 was administered on days 6–10 in 350-mg QD doses. A concomitant dose of MTX (7.5 mg) was administered on day 8, followed by leucovorin (15 mg) on day 9 (Online Resource 2). BMS-986142 was administered with 240 mL of water, and a minimum amount of additional water was permitted to allow dosing of all medications. Only healthy male participants (ages ≥18 to ≤50 years) were eligible for the MTX-DDI assessment in study 2. Other key inclusion and exclusion criteria were identical to those in study 1.
Participants were monitored for adverse events (AEs) throughout the study. Clinical laboratory tests, vital sign measurements, 12-lead ECGs, and physical examinations were performed at selected times throughout the dosing interval. Safety data was recorded in the participants’ medical records, and assessments were performed for emergent AEs or serious AEs (SAEs). For all AEs, causal relationship to the study drug was determined by an investigator.

[6] = 7-hydroxymethotrexate, 24 hours at RT in Plasma, High QC 750
[7] = 7-hydroxymethotrexate, 24 hours at RT in Plasma, Low QC 3.00
[8] = 7-hydroxymethotrexate, 142 h Processed sample stability, High QC 750
[9] = 7-hydroxymethotrexate, 142 h Processed sample stability, Low QC 3.00
[10] = 7-hydroxymethotrexate, 6 days at 5 °C Re-injection integrity, High QC 750
[11] = 7-hydroxymethotrexate, 6 days at 5 °C Re-injection integrity, Low QC 3.00
[12] = 7-hydroxymethotrexate, 449 day at -20 °C in Plasma, High QC 750
[13] = 7-hydroxymethotrexate, 449 day at -20 °C in Plasma, Low QC 3.00
[14] = 7-hydroxymethotrexate, After 4 Freeze-Thaw Cycle in Plasma, High QC 750
[15] = 7-hydroxymethotrexate, After 4 Freeze-Thaw Cycle in Plasma, Low QC 3.00
[16] = male, human, plasma, oral, Treatment D: single-dose methotrexate 7.5 mg (day 1) + leucovorin 15 mg (day 2)
[17] = male, human, plasma, oral, Treatment F: BMS-986142 350 mg QD + single-dose methotrexate 7.5 mg (day 8) + leucovorin 15 mg (day 9)
[18] = methotrexate with BMS-986142 350 mg QD vs methotrexate alone
[19] = MTX 7.5 mg (Day 1) + leucovorin 15 mg (Day 2), n = 12
[20] = methotrexate, 24 hours at RT in Plasma, High QC 750
[21] = methotrexate, 24 hours at RT in Plasma, Low QC 3.00
[22] = methotrexate, 142 h Processed sample stability, High QC 750
[23] = methotrexate, 142 h Processed sample stability, Low QC 3.00
[24] = methotrexate, 6 days at 5 °C Re-injection integrity, High QC 750
[25] = methotrexate, 6 days at 5 °C Re-injection integrity, Low QC 3.00
[26] = methotrexate, 449 day at -20 °C in Plasma, High QC 750
[27] = methotrexate, 449 day at -20 °C in Plasma, Low QC 3.00
[28] = methotrexate, After 4 Freeze-Thaw Cycle in Plasma, High QC 750
[29] = methotrexate, After 4 Freeze-Thaw Cycle in Plasma, Low QC 3.00

SMILES: CN(Cc1nc2c(N)nc(N)nc2[nH]c1=O)c1ccc(C(=O)N[C@@H](CCC(=O)O)C(=O)O)cc1 [7-hydroxymethotrexate]
- Stability, %Dev [1, 6]: -0.3%
- Stability, Mean Conc. [1, 6]: 747 ng/mL
- Stability, %Dev [1, 7]: 9.2%
- Stability, Mean Conc. [1, 7]: 3.28 ng/mL
- Stability, %Dev [1, 8]: -8.1%
- Stability, Mean Conc. [1, 8]: 689 ng/mL
- Stability, %Dev [1, 9]: -8.7%
- Stability, Mean Conc. [1, 9]: 2.74 ng/mL
- Stability, %Dev [1, 10]: 0.4%
- Stability, Mean Conc. [1, 10]: 753 ng/mL
- Stability, %Dev [1, 11]: 5.7%
- Stability, Mean Conc. [1, 11]: 3.17 ng/mL
- Stability, %Dev [1, 12]: -0.3%
- Stability, Mean Conc. [1, 12]: 747 ng/mL
- Stability, %Dev [1, 13]: -10.4%
- Stability, Mean Conc. [1, 13]: 2.69 ng/mL
- Stability, %Dev [1, 14]: 0.2%
- Stability, Mean Conc. [1, 14]: 751 ng/mL
- Stability, %Dev [1, 15]: 1.4%
- Stability, Mean Conc. [1, 15]: 3.04 ng/mL

SMILES: Cc1c(NC(=O)c2cc3c(s2)CCCC3)cccc1-c1cn(C)c(=O)c(Nc2ccc([C@@H]3C(=O)N(C)CCN3C)cc2)n1 [GDC-0834]
- Efficacy in animal models of arthritis [2]: Dose-dependent efficacy

SMILES: C=CC(=O)N1CCC[C@@H](n2nc(-c3ccc(Oc4ccccc4)cc3)c3c(N)ncnc32)C1 [PCI-32765]
- Efficacy in animal models of arthritis [2]: Dose-dependent efficacy

SMILES: CN1CCN(c2ccc(Nc3cc(-c4cccc(-n5ccc6cc(C7CC7)cc(F)c6c5=O)c4CO)cn(C)c3=O)nc2)CC1 [RN486]
- Efficacy on joint and systemic inflammation [3]: efficacious in reducing joint and systemic inflammation

SMILES: CN(Cc1cnc2nc(N)nc(N)c2n1)c1ccc(C(=O)N[C@@H](CCC(=O)O)C(=O)O)cc1 [methotrexate, reference compound]
- AUC(0-T), geometric mean (adjusted) ([4]; Treatment D: single-dose methotrexate 7.5 mg (day 1) + leucovorin 15 mg (day 2)): 613 ng·h/mL
- AUC(0-inf) [4, 16]: 625 ng·h/mL
- Cmax [4, 16]: 178 ng/mL
- AUC(0-t) ([4]; male, human, plasma, oral, Treatment F: BMS-986142 350 mg QD + single-dose methotrexate 7.5 mg (day 8) + leucovorin 15 mg (day 9), read-out: AUC(0-T), geometric mean (adjusted)): 638 ng·h/mL
- AUC(0-inf) [4, 17]: 654 ng·h/mL
- Cmax [4, 17]: 186 ng/mL
- AUC(0-T), adjusted geometric mean ratio F vs D [4, 18]: 1.041
- AUC(inf), adjusted geometric mean ratio F vs D [4, 18]: 1.045
- Cmax, adjusted geometric mean ratio F vs D [4, 18]: 1.046
- AE SOC: Gastrointestinal Disorders [5, 19]: 0 n (%)
- AE SOC: General disorders and administration site conditions [5, 19]: 1 (8.3) n (%)
- AE SOC: Infections and infestations [5, 19]: 0 n (%)
- AE SOC: Injury, poisoning and procedural complications [5, 19]: 0 n (%)
- AE SOC: Nervous system disorders [5, 19]: 1 (8.3) n (%)
- AE SOC: Psychiatric disorders [5, 19]: 0 n (%)
- AE: Anxiety [5, 19]: 0 n (%)
- AE: Arthropod Bite [5, 19]: 0 n (%)
- AE: Asthenia [5, 19]: 1 (8.3) n (%)
- AE: Dizziness [5, 19]: 1 (8.3) n (%)
- AE: Fatigue [5, 19]: 0 n (%)
- AE: Headache [5, 19]: 0 n (%)
- AE: Nausea [5, 19]: 0 n (%)
- AE: Sleep Disorder [5, 19]: 0 n (%)
- AE: Tremor [5, 19]: 1 (8.3) n (%)
- Total participants with an event [5, 19]: 1 (8.3) n (%)
- Number of AEs reported ([5]; Study 2, single-dose MTX on day 1): Three
- Stability, %Dev [1, 20]: 0.2%
- Stability, Mean Conc. [1, 20]: 751 ng/mL
- Stability, %Dev [1, 21]: -0.1%
- Stability, Mean Conc. [1, 21]: 3.00 ng/mL
- Stability, %Dev [1, 22]: -13.1%
- Stability, Mean Conc. [1, 22]: 652 ng/mL
- Stability, %Dev [1, 23]: -9.2%
- Stability, Mean Conc. [1, 23]: 2.72 ng/mL
- Stability, %Dev [1, 24]: -2.2%
- Stability, Mean Conc. [1, 24]: 734 ng/mL
- Stability, %Dev [1, 25]: 3.4%
- Stability, Mean Conc. [1, 25]: 3.10 ng/mL
- Stability, %Dev [1, 26]: 0.6%
- Stability, Mean Conc. [1, 26]: 755 ng/mL
- Stability, %Dev [1, 27]: -9.9%
- Stability, Mean Conc. [1, 27]: 2.70 ng/mL
- Stability, %Dev [1, 28]: -2.1%
- Stability, Mean Conc. [1, 28]: 734 ng/mL
- Stability, %Dev [1, 29]: 3.7%
- Stability, Mean Conc. [1, 29]: 3.11 ng/mL
